Experimental data from ChEMBL document CHEMBL1201862, “PubChem BioAssay data set” (2004).
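These data come from cells grown in 96-well plates and exposed to compound for 48 hours at five concentrations. GI50 marks 50% less growth.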 Activity calls are given as the source filed them. No stated cut-off is given here; in the data, active = GI50 up to about 1.1 µM and inactive = higher.

Key:
Assay in all cases: NCI tumour cell line growth inhibition, 48 h
[1] = test system: A498
[2] = test system: A549
[3] = test system: COLO 205
[4] = test system: HCT-15
[5] = test system: HL-60
[6] = test system: HOP-62
[7] = test system: HOP-92
[8] = test system: IGROV-1
[9] = test system: K562
[10] = test system: M14
[11] = test system: NCI-H226
[12] = test system: OVCAR-3
[13] = test system: OVCAR-8
[14] = test system: SF-268
[15] = test system: SF-539
[16] = test system: SK-MEL-5
[17] = test system: SK-OV-3
[18] = test system: SNB-75
[19] = test system: TK-10
[20] = test system: MCF7

SMILES | GI50 [1] | GI50 [2] | GI50 [3] | GI50 [4] | GI50 [5] | GI50 [6] | GI50 [7] | GI50 [8] | GI50 [9] | GI50 [10] | GI50 [11] | GI50 [12] | GI50 [13] | GI50 [14] | GI50 [15] | GI50 [16] | GI50 [17] | GI50 [18] | GI50 [19] | GI50 [20]
CC1=C(C#N)C(N)=C2C(C)=C(C#N)C(N)=C12 | > 100 µM (inactive) | > 100 µM (inactive) | > 100 µM (inactive) | > 100 µM | > 100 µM (inactive) | > 100 µM (inactive) | > 100 µM (inactive) | > 100 µM (inactive) | > 100 µM (inactive) | > 100 µM (inactive) | > 100 µM (inactive) | > 100 µM (inactive) | > 100 µM (inactive) | > 100 µM (inactive) | > 100 µM (inactive) | > 100 µM (inactive) | > 100 µM (inactive) | > 100 µM (inactive) | > 100 µM (inactive) | 
c1ccc(/N=c2/sc3ccccc3s/c2=N/c2ccccc2)cc1 | 2.33 µM (inactive) | 2.54 µM (inactive) | 1.92 µM (inactive) | 1.75 µM | 6.41 µM (inactive) | 4.45 µM (inactive) | 2 µM (inactive) | 1.62 µM (inactive) | 3.78 µM (inactive) |  | 2.88 µM (inactive) |  | 1.89 µM (inactive) | 3.12 µM (inactive) | 1.88 µM (inactive) | 1.99 µM (inactive) | 2.81 µM (inactive) | 2.82 µM (inactive) | 4.08 µM (inactive) | 
O=C(O)CCNS(=O)(=O)c1ccc([N+](=O)[O-])cc1 | > 100 µM (inactive) | > 100 µM (inactive) | > 100 µM (inactive) | > 100 µM | > 100 µM (inactive) |  | > 100 µM (inactive) | > 100 µM (inactive) | > 100 µM (inactive) | > 100 µM (inactive) | > 100 µM (inactive) | > 100 µM (inactive) | > 100 µM (inactive) | > 100 µM (inactive) | > 100 µM (inactive) | > 100 µM (inactive) | > 100 µM (inactive) | > 100 µM (inactive) | > 100 µM (inactive) | 
O=C(Cc1ccccc1)NNc1nc(NNC(=O)c2ccncc2)nc(Nc2ccccc2)n1 |  |  | > 10 µM (inactive) | > 10 µM | > 10 µM (inactive) | > 10 µM (inactive) | > 10 µM (inactive) | > 10 µM (inactive) | > 10 µM (inactive) | > 10 µM (inactive) |  |  | > 10 µM (inactive) | > 10 µM (inactive) | > 10 µM (inactive) |  | > 10 µM (inactive) | > 10 µM (inactive) | > 10 µM (inactive) | > 10 µM (inactive)
CCO/C=C\C12CCCC1NC(c1ccccc1)(c1ccccc1)O2 (configuration not stated) | 53.5 µM (inactive) | 32.8 µM (inactive) |  |  | 18.2 µM (inactive) | 41.5 µM (inactive) | 24 µM (inactive) | 28 µM (inactive) | 20.1 µM (inactive) | 22.5 µM (inactive) | 43.8 µM (inactive) | 27.9 µM (inactive) | 39.2 µM (inactive) | 35.8 µM (inactive) | 25.3 µM (inactive) | 17.1 µM (inactive) | 40.4 µM (inactive) | 19.5 µM (inactive) | 31.5 µM (inactive) | 
COC(=O)N1[C@H]2Cc3c(OC)c(C)c(OC)c(OC)c3[C@@H]1/C(=C\c1cc(OC)c(OC)c(C)c1OC)N(Cc1ccccc1)C2=O | > 100 µM (inactive) | 40.8 µM (inactive) | 13.8 µM (inactive) |  | 5.52 µM (inactive) | 74.1 µM (inactive) | 7.96 µM (inactive) | 95.3 µM (inactive) | 26.2 µM (inactive) | 29.7 µM (inactive) | 0.23 µM (active) | 32.7 µM (inactive) | 32.4 µM (inactive) | 78.2 µM (inactive) | > 100 µM (inactive) | 21.8 µM (inactive) | 57.3 µM (inactive) | 67.5 µM (inactive) | 33.3 µM (inactive) | 
Cc1ccc2n(c1)cc(-c1ccc(/C=N/NC(=N)N/N=C/c3ccc(-c4cn5cc(C)ccc5[n+]4C)cc3)cc1)[n+]2C |  | > 100 µM (inactive) | > 100 µM (inactive) | 95.9 µM | > 100 µM (inactive) | > 100 µM (inactive) |  | > 100 µM (inactive) | > 10 µM (inactive) | 33.9 µM (inactive) |  |  | > 100 µM (inactive) | 21.4 µM (inactive) | 39.8 µM (inactive) | 41.1 µM (inactive) | > 100 µM (inactive) | 20.9 µM (inactive) | > 100 µM (inactive) | > 100 µM (inactive)
CC(=O)OC1[C@H](OC(C)=O)C2=C(C)[C@@H](OC(C)=O)C[C@@]2(C(C)(C)O)[C@@H](OC(C)=O)[C@H]2[C@@]1(C)[C@@H](OC(C)=O)CC(OC(C)=O)[C@]21CO1 (some centres not stated) |  | > 100 µM (inactive) | > 100 µM (inactive) | > 100 µM | > 100 µM (inactive) | > 100 µM (inactive) |  |  | > 100 µM (inactive) | > 100 µM (inactive) | > 100 µM (inactive) | > 100 µM (inactive) | > 100 µM (inactive) | > 100 µM (inactive) | > 100 µM (inactive) | > 100 µM (inactive) | > 100 µM (inactive) | > 100 µM (inactive) | > 100 µM (inactive) | > 100 µM (inactive)
